In patent US6906061B2, “Pharmaceutical agent containing Rho kinase inhibitor” (Mitsubishi Pharma Corporation, priority 1996, dated 2005):

What was measured:
[1] = test system: hind limb skin blood flow; assay: Peripheral blood flow increasing action in STZ-induced diabetic rats; type: in vivo, rat; conditions: intravenous, 1 μg
Procedure, shortened: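 Male SD rats (200-300 g) made diabetic with STZ 65 mg/kg i.v.; one month later, under pentobarbital anesthesia, compound given i.v. via carotid catheter. Hind limb skin blood flow measured by laser flowmeter, expressed as percent increase over pre-dose flow.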

Human SK-Mel-28 melanoma = assay: Inhibition of cell growth of SK-Mel-28 melanoma; type: cell-based; conditions: 72 hours, MTT
Description: Inhibition of Cell Growth of SK-Mel-28 Melanoma
Human SK-Mel-28 melanoma (10^4 cells) and the test compound were suspended in RPMI1640 medium containing 100 μl of 10% FBS and incubated in a 96 well plate at 37° C. under 5% CO2 gas for 72 hours. After the incubation, 10 μl of MTT (5 mg/ml) was added to each well and the cells were incubated at 37° C. under 5% CO2 gas for 4 hours. Then, 10% sodium dodecyl sulfate and 0.01 N hydrochloric acid solution were each added by 10 μl to respective wells. After the plate was stood overnight, absorbance at 570 nm was measured using a microplate reader and the inhibition percentage (% cytotoxicity) was calculated by the following formula.
The cytotoxicity against human cultured tumor cells was confirmed by pigment method (Carmichael et al., Cancer Res., 47, 936-942, 1987: Mosman, J. Immunol. Methods, 65, 55-63, 1983) using 3-(4,5-dimethylthiazol-2-yl)-2,5-diphenyltetrazolium bromide (MTT).
The test compound was dissolved in dimethyl sulfoxide and diluted with RPMI 1640 medium before use. The final dimethyl sulfoxide concentration was adjusted to not more than 0.25%.

CC(N)[C@H]1CC[C@H](C(=O)Nc2ccncc2)CC1 (single isomer, unassigned; (+)) [Compound 80.2HCl.H2O, (+)-trans-4-(1-aminoethyl)-1-(4-pyridylcarbamoyl)cyclohexane] was tested, and the “Increase in skin blood flow ± standard error (%)” value [1] was 135.0 ± 13.4%.

CC(N)[C@H]1CC[C@H](C(=O)Nc2ccnc3[nH]ccc23)CC1 (single isomer, unassigned; (+)) [Compound 109.2HCl, (+)-trans-N-(1H-pyrrolo[2,3-b]pyridin-4-yl)-4-(1-aminoethyl)cyclohexanecarboxamide] gave an IC50 (Human SK-Mel-28 melanoma) of 58 µM.
